Experimental data reported in patent US20230287051A1, “INHIBITORS OF COMPLEMENT FACTOR C3 AND THEIR MEDICAL USES” (ZP SPV 3 K/S, priority 2020, published 2023).
Numbered stars: 1 amine (or outer) side, 2 acyl side, 3 side chain; on linkers, the order of the positions; unused ones are H or OH. Bridge positions count the residues as written; N and C are the ends. Square brackets hold non-standard residues; d marks the D form. Side chains are listed from the residue outwards. Peptide text beside a SMILES is read from it. * marks the point of attachment. Trp(1-Me) = Cn1cc(C[C@H](N)C(=O)O)c2ccccc21; C18 diacid = O=C(O)CCCCCCCCCCCCCCCCC(=O)*; C16 diacid = O=C(O)CCCCCCCCCCCCCCC(=O)*; γGlu = O=C(O)[C@H](CCC(=O)[*:2])N[*:1]; AEEA = NCCOCCOCC(=O)O; CH2 = C([*:1])[*:2]; Sar = CNCC(=O)O

Columns and labels:
[1] = biological target: T1, Human C3 (Homo sapiens, UniProt P01024); experiment: Affinity measurement by surface plasmon resonance with immobilized C3; details: SPR, immobilized human C3, 25° C., 1:1 Langmuir binding model, n=>2
T1 construct: purchased Complement tech A113c
Procedure: (§1) Surface plasmon resonance (SPR) was used to characterize peptides with respect to their binding affinity (Kd) for C3.
(§2) For interaction experiments, a multi-cycle experiment approach was used and performed using a BiacoreX100™ instrument (GE Healthcare) at 25° C. Peptides were injected in increasing concentration series (5 different concentrations and buffer reference) for 180 seconds at a flow rate of 30 μL/min in a buffer consisting of 50 mM Tris buffer at pH 7.4, with 150 mM NaCl and 0.05% Tween20. This was followed by a dissociation period for 10 min. The C3 surface was regenerated between runs by two consecutive injections of 3 M MgCl2 each for 45 seconds.
(§3) Sensorgrams were double-referenced (reference surface, blanks) prior to analysis of the kinetic profiles by globally fitting data to a 1:1 Langmuir binding model to obtain association and dissociation rates for calculation of the equilibrium dissociation constant Kd (Table 3). Each peptide was tested at in at least 2 independent experiments.

[2] = test system: classical complement pathway; experiment: In vitro haemolysis assay (inhibition of classical complement pathway); format: cell-based; details: human serum, sensitized sheep RBC, 30 minutes at 37° C., absorbance at 405 nm, n=>2; read-out: IC50, inhibition of hemolysis
Procedure: The in vitro effect of some of the compounds described herein was assessed by measuring their inhibitory effect of the classical complement pathway in a haemolysis assay.
Briefly, compounds described herein and reference compounds were dissolved in DMSO and diluted in Tris/Casein Assay Buffer (10 mM Tris, 145 mM NaCl, 0.5 mM MgCl2, 0.15 mM CaCl2, and 0.1% W/V casein, adjusted to pH 7.4) as 9-point serial dilutions in a 96-well plate. Sensitized sheep red blood cells (RBC) coated with rabbit anti-sheep erythrocyte antiserum (Complement Technology, Inc., TX, USA) were washed in Tris/asein Assay Buffer. 50 μL from each well of diluted compound was added to a 96-well plate containing 50 μL diluted human serum (Complement Technology, Inc., TX, USA) and incubated for 15 minutes at room temperature. The serum dilution factor was optimized for every serum batch to obtain 70-90% of maximal haemolysis using the protocol. Then 50 μL sensitized sheep RBCs were added to all wells ([…]).
After 30 minutes of incubation at 37° C. with gentle agitation, the reaction was stopped by addition of 50 μL Tris STOP Buffer per well (10 mM EDTA, 10 mM Tris, 145 mM NaCl adjusted to pH 7.4). The RBCs were then removed by centrifugation and the resulting supernatant measured for hemolysis by absorbance at 405 nm.
The response was normalized relative to a positive and negative control (vehicle) to calculate the IC50 (nM) from the concentration response curve using the 4-parameter logistic (4PL) nonlinear model for curve fitting (Table 2). All values are based on n=>2 independent determinations.

[3] = biological target: T2, Human C3 (Complement tech cat #A113c) (human, UniProt P01024 23-1663); experiment: cell-based or functional assay
[4] = biological target: T2, Human C3 (Complement tech cat #A113c); experiment: SPR (Biacore X100, 25 C), human C3 amine-coupled on CM5 chip, peptide as analyte, 1:1 Langmuir fit
Procedure: as §1
as §2, with “min.” for “min. The C3 surface was regenerated between runs by two consecutive injections of 3 M MgCl2 each for 45 seconds.”
as §3

T2 sequence (P01024 23-1663 limits assumed): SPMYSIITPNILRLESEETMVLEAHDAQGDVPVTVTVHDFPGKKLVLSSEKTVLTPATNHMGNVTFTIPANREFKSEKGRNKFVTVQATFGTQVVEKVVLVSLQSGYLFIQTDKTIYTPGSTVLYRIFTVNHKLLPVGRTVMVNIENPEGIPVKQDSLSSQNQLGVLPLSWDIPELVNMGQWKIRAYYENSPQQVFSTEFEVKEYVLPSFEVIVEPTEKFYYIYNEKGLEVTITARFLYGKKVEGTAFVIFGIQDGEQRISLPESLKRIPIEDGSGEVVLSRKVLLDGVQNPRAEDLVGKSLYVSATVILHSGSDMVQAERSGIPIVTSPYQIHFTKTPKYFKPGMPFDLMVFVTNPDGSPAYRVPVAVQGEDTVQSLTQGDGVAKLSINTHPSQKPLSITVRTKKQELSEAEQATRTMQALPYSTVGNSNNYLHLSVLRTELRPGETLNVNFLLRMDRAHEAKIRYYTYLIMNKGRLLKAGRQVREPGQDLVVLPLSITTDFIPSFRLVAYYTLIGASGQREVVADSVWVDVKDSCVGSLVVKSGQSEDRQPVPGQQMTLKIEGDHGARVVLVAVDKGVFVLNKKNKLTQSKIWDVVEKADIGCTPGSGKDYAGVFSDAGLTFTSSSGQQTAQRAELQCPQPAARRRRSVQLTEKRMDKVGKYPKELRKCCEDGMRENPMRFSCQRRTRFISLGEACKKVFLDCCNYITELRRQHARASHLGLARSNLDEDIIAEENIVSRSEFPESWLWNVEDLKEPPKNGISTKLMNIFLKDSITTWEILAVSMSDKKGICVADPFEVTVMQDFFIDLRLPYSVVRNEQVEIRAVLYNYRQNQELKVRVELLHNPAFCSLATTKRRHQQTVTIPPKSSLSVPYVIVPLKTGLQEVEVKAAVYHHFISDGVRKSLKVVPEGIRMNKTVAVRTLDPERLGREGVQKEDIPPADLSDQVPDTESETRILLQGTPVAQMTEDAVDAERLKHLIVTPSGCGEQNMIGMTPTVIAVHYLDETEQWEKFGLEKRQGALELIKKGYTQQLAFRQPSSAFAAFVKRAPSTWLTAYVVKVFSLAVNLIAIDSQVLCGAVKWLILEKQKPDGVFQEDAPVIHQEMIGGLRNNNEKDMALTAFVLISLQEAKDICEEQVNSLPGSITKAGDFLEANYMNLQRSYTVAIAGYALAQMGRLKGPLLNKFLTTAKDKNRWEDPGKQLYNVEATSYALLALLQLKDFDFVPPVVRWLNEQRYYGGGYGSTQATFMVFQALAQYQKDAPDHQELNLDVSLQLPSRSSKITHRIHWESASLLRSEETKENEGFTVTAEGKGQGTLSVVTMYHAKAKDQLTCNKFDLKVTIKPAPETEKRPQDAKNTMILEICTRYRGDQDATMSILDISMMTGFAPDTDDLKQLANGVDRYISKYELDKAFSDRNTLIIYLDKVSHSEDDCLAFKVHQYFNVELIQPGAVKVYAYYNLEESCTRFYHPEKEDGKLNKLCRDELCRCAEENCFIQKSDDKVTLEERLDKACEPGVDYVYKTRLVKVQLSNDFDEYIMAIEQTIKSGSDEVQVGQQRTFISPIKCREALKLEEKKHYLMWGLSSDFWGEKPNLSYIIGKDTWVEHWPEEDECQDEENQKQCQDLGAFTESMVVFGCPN

CC[C@H](C)[C@@H]1NC(=O)[C@@H](NC(=O)[C@H](Cc2ccccc2)NC(=O)[C@H](CCC(=O)O)NC(=O)[C@H](CO)NC(C)=O)CSCSC[C@@H](C(=O)N[C@H](C(=O)N[C@@H](CCC(=O)O)C(=O)NCC(=O)N[C@@H](CCC(=O)O)C(=O)NCCOCCOCC(=O)NCCOCCOCC(=O)N[C@@H](CCCCNC(=O)CC[C@H](NC(=O)CNC(=O)CC[C@H](NC(=O)CCCCCCCCCCCCCCCCC(=O)O)C(=O)O)C(=O)O)C(N)=O)[C@@H](C)O)NC(=O)[C@H](CCCNC(=N)N)NC(=O)[C@H](Cc2c[nH]cn2)NC(=O)[C@H](CCC(=O)O)NC(=O)CN(C)C(=O)[C@H](Cc2c[nH]c3ccccc23)NC(=O)[C@H](CC(=O)O)NC(=O)[C@H](CCC(N)=O)NC(=O)[C@H](Cc2cn(C)c3ccccc23)NC1=O [Compound 9] (Ac-SEFCI[Trp(1-Me)]QDW[Sar]EHRCTEGE[AEEA][AEEA]K([γGlu-Gly-γGlu-C18 diacid])-NH2; linker 4-14 via CH2)
Kd [1]: 17 nM | IC50 [2]: < 250 nM

CC[C@H](C)[C@@H]1NC(=O)[C@@H](NC(=O)[C@H](Cc2ccccc2)NC(=O)[C@H](CCC(=O)O)NC(=O)[C@H](CO)NC(C)=O)CSCSC[C@@H](C(=O)N[C@H](C(=O)N[C@@H](CCC(=O)O)C(=O)NCCOCCOCC(=O)NCCOCCOCC(=O)N[C@@H](CCCCNC(=O)CC[C@H](NC(=O)CNC(=O)CC[C@H](NC(=O)CCCCCCCCCCCCCCCCC(=O)O)C(=O)O)C(=O)O)C(N)=O)[C@@H](C)O)NC(=O)[C@H](CCCNC(=N)N)NC(=O)[C@H](Cc2c[nH]cn2)NC(=O)[C@H](CCC(=O)O)NC(=O)CN(C)C(=O)[C@H](Cc2c[nH]c3ccccc23)NC(=O)[C@H](CC(=O)O)NC(=O)[C@H](CCC(N)=O)NC(=O)[C@H](Cc2cn(C)c3ccccc23)NC1=O [Compound 10, Ac-SEF[C(1)]I[1-Me-Trp]QDW[Sar]EHR[C(1)]TE[Peg3][Peg3]-K([17-Carboxy-heptadecanoyl][yGlu]G[yGlu])-NH2] (Ac-SEFCI[Trp(1-Me)]QDW[Sar]EHRCTE[AEEA][AEEA]K([γGlu-Gly-γGlu-C18 diacid])-NH2; linker 4-14 via CH2)
Kd [1]: 19 nM | IC50 [2]: < 250 nM

CC[C@H](C)[C@@H]1NC(=O)[C@@H](NC(=O)[C@H](Cc2ccccc2)NC(=O)[C@H](CCC(=O)O)NC(=O)[C@H](CO)NC(=O)CNC(=O)[C@H](CCC(=O)O)NC(=O)CCCCCCCCCCCCCCC(=O)O)CSCSC[C@@H](C(=O)N[C@H](C(=O)N[C@@H](CCC(=O)O)C(=O)NCC(=O)N[C@@H](CCC(=O)O)C(N)=O)[C@@H](C)O)NC(=O)[C@H](CCCNC(=N)N)NC(=O)[C@H](Cc2c[nH]cn2)NC(=O)[C@H](CCC(=O)O)NC(=O)CN(C)C(=O)[C@H](Cc2c[nH]c3ccccc23)NC(=O)[C@H](CC(=O)O)NC(=O)[C@H](CCC(N)=O)NC(=O)[C@H](Cc2cn(C)c3ccccc23)NC1=O [Compound 19] ({C16 diacid}-EGSEFCI[Trp(1-Me)]QDW[Sar]EHRCTEGE-NH2; linker 6-16 via CH2)
Kd [1]: 19 nM | IC50 [2]: < 250 nM

CC[C@H](C)[C@@H]1NC(=O)[C@@H](NC(=O)[C@H](Cc2ccccc2)NC(=O)[C@H](CCC(=O)O)NC(=O)[C@H](CO)NC(=O)CNC(=O)[C@H](CCC(=O)O)NC(C)=O)CSCSC[C@@H](C(=O)N[C@H](C(=O)N[C@@H](CCC(=O)O)C(=O)NCC(=O)N[C@@H](CCC(=O)O)C(=O)NCCOCCOCC(=O)N[C@@H](CCC(=O)O)C(=O)N[C@@H](CO)C(=O)N[C@@H](CCCCNC(=O)CC[C@H](NC(=O)CCCCCCCCCCCCCCCCC(=O)O)C(=O)O)C(N)=O)[C@@H](C)O)NC(=O)[C@H](CCCNC(=N)N)NC(=O)[C@H](Cc2c[nH]cn2)NC(=O)[C@H](CCC(=O)O)NC(=O)CN(C)C(=O)[C@H](Cc2c[nH]c3ccccc23)NC(=O)[C@H](CC(=O)O)NC(=O)[C@H](CCC(N)=O)NC(=O)[C@H](Cc2cn(C)c3ccccc23)NC1=O [Compound 20, Ac-EGSEF[C(1)]I[1-Me-Trp]QDW[Sar]EHR[C(1)]TEGE[Peg3]ES-K([17-Carboxy-heptadecanoyl][yGlu])-NH2] (Ac-EGSEFCI[Trp(1-Me)]QDW[Sar]EHRCTEGE[AEEA]ESK([γGlu-C18 diacid])-NH2; linker 6-16 via CH2)
Kd [1]: 19 nM | IC50 [2]: < 250 nM

CC[C@H](C)[C@@H]1NC(=O)[C@@H](NC(=O)[C@H](Cc2ccccc2)NC(=O)CNC(=O)[C@H](CO)NC(=O)[C@H](CCC(=O)O)NC(=O)CNC(=O)[C@H](CCC(=O)O)NC(C)=O)CSCSC[C@@H](C(=O)N[C@H](C(=O)N[C@@H](CCC(=O)O)C(=O)NCC(=O)N[C@@H](CCC(=O)O)C(=O)NCCOCCOCC(=O)NCCOCCOCC(=O)N[C@@H](CCCCNC(=O)CC[C@H](NC(=O)CNC(=O)CC[C@H](NC(=O)CCCCCCCCCCCCCCCCC(=O)O)C(=O)O)C(=O)O)C(N)=O)[C@@H](C)O)NC(=O)[C@H](CCCNC(=N)N)NC(=O)[C@H](Cc2c[nH]cn2)NC(=O)[C@H](CCC(=O)O)NC(=O)CN(C)C(=O)[C@H](Cc2c[nH]c3ccccc23)NC(=O)[C@H](CC(=O)O)NC(=O)[C@H](CCC(N)=O)NC(=O)[C@H](Cc2cn(C)c3ccccc23)NC1=O [Compound 27, Ac-EGESGF[C(1)]I[1-Me-Trp]QDW[Sar]EHR[C(1)]TEGE[Peg3][Peg3]-K([17-Carboxy-heptadecanoyl][yGlu]G[yGlu])-NH2] (Ac-EGESGFCI[Trp(1-Me)]QDW[Sar]EHRCTEGE[AEEA][AEEA]K([γGlu-Gly-γGlu-C18 diacid])-NH2; linker 7-17 via CH2)
Kd [1]: 17 nM | IC50 [2]: < 100 nM

B1: Compound 2 (peptide)
peptide: Ac-SEFCI[Trp(1-Me)]QDWGEHRC[Sar]EGE[AEEA][AEEA]K([γGlu-Gly-γGlu-C18 diacid])-NH2
modifications: bridge 4-14 via methylene thioacetal (-S-CH2-S-)
notes: Synthetic compstatin analogue; also called Comp No 2
IC50 [nM], in vitro inhibition of hemolysis (classical complement pathway; human serum, sensitized sheep RBC) [3]: < 500 nM | Kd [4]: 54 nM

B2: Compound 23 (peptide)
peptide: Ac-ESQVFCI[Trp(1-Me)]QDW[Sar]EHRCTEGE[AEEA][AEEA]K([γGlu-Gly-γGlu-C18 diacid])-NH2
modifications: bridge 6-16 via methylene thioacetal (-S-CH2-S-)
notes: Synthetic compstatin analogue; also called Comp No 23
IC50 [nM], in vitro inhibition of hemolysis (classical complement pathway; human serum, sensitized sheep RBC) [3]: < 100 nM | Kd [4]: 14 nM

B3: Compound 24 (peptide)
peptide: Ac-ESEQVFCI[Trp(1-Me)]QDW[Sar]EHRCTEGE[AEEA][AEEA]K([γGlu-Gly-γGlu-C18 diacid])-NH2
modifications: bridge 7-17 via methylene thioacetal (-S-CH2-S-)
notes: Synthetic compstatin analogue; also called Comp No 24
IC50 [nM], in vitro inhibition of hemolysis (classical complement pathway; human serum, sensitized sheep RBC) [3]: < 100 nM | Kd [4]: 13 nM

B4: Compound 25 (peptide)
peptide: Ac-SEQAFCI[Trp(1-Me)]QDW[Sar]EHRCTEGE[AEEA][AEEA]K([γGlu-Gly-γGlu-C18 diacid])-NH2
modifications: bridge 6-16 via methylene thioacetal (-S-CH2-S-)
notes: Synthetic compstatin analogue; also called Comp No 25; comp 25
IC50 [nM], in vitro inhibition of hemolysis (classical complement pathway; human serum, sensitized sheep RBC) [3]: < 100 nM | Kd [4]: 9.1 nM

B5: Compound 26 (peptide)
peptide: Ac-SKQEFCI[Trp(1-Me)]QDW[Sar]EHRCTEGE[AEEA][AEEA]K([γGlu-Gly-γGlu-C18 diacid])-NH2
modifications: bridge 6-16 via methylene thioacetal (-S-CH2-S-)
notes: Synthetic compstatin analogue; also called Comp No 26
IC50 [nM], in vitro inhibition of hemolysis (classical complement pathway; human serum, sensitized sheep RBC) [3]: < 100 nM | Kd [4]: 11 nM
